pIC50: −log10 of the molar value. Read-outs that look alike come from different tables or passages of the source.
Legend:
[1] = tested on: brain prolyl endopeptidase; assay: Ex vivo prolyl endopeptidase inhibition in brain after oral administration; conditions: rat, p.o.; for PEP Actively in brain (% of control): 10 mg/kg
Procedure: Ex vivo enzyme inhibition studies were performed to assess the degree of CNS availability and prolyl endpeptidase inhibition after oral administration. Compounds were dissolved in a minimal mount of ethanol (about 10% total volume) and made up to the appropriate volume with 1% polyoxyether sorbitan monooleate (Tween 80). Rats were dosed p.o. and at the appropriate times killed. The brains were removed, homogenised in the ice-cooled assay buffer, and centrifugated.

prolyl endopeptidase = target: T1, prolyl endopeptidase (Sus scrofa, UniProt P23687); assay: Prolyl endopeptidase-inhibitory activity in vitro (porcine kidney enzyme, Z-Gly-Pro-p-nitroanilide substrate); assay type: biochemical
T1 construct: porcine kidney enzyme which was prepared according to methods of Walter and Yoshimoto et al; from tissue; host or cells: porcine kidney
T1 sequence (P23687 whole entry): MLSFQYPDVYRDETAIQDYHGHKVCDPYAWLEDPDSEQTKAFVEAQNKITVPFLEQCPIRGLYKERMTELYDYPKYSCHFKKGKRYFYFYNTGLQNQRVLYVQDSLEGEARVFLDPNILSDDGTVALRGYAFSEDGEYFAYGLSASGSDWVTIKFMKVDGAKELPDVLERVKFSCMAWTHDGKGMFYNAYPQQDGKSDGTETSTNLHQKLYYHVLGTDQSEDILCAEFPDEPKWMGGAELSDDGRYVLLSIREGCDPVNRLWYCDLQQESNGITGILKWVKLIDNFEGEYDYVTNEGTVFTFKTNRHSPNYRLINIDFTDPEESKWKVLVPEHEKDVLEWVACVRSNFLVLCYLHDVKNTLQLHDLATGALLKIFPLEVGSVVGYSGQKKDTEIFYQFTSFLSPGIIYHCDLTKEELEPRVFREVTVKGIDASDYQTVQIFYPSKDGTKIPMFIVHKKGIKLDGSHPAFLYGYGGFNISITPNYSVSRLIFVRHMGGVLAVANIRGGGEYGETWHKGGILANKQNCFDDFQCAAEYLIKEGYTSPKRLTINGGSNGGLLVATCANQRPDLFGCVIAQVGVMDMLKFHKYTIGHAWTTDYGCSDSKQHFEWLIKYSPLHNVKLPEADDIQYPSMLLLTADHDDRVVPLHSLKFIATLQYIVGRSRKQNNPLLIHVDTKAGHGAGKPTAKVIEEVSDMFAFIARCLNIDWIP
Procedure: A test compound (2 mg) was dissolved in DMSO (2 ml) and diluted to appropriate concentrations with DMSO. Z-Gly-Pro-p-nitroanilide (8 mg), a substrate was dissolved in dioxane (5 ml), water (27 ml) and 0.2 M phosphate buffer (pH 7.8, 40 ml). The substrate solution ([…]) was mixed with an inhibitor solution (3 ml) and followed by addition of above mentioned porcine kidney enzyme solution ([…]). Immediately after the mixing the UV absorbance at 405 nm was detected. The mixture was incubated at 37° C. for 20 min. and the UV absorbance was checked. A standard curve of absorbance (OD) vs. p-nitroaniline concentration was used to relate the absorbance to amount of substrate hydrolyzed. […] The inhibiting activity was obtained following the equation below. The IC50 value was estimated from the inhibitor concentration vs. inhibitory activity curve.
The percent inhibitory activity (%)=(ΔODc -ΔODs)/ΔODc ×100
ΔODs : ΔOD for test sample

**Q.** Which “PEP Actively in brain (% of control)” value ([1]; 0.25 hr) does the source give for O=C(c1nc2ccccc2s1)[C@@H]1CCCN1C(=O)[C@@H]1CCCN1C(=O)CCCc1ccccc1 [Example 1, 2-[1-{1-(4-Phenylbutanoyl)pyrrolidin-2(S)-ylcarbonyl}pyrrolidin-2(S)-ylcarbonyl]benzothiazole] here?
**A.** 42 % of control

**Q.** And the “PEP Actively in brain (% of control)” value ([1]; 0.5 hr)?
**A.** 21 % of control

**Q.** And the “PEP Actively in brain (% of control)” value ([1]; 1 hr)?
**A.** 32 % of control

**Q.** What about the “PEP Actively in brain (% of control)” value ([1]; 2 hr) of the same molecule?
**A.** 47 % of control

**Q.** And the “PEP Actively in brain (% of control)” value ([1]; 4 hr)?
**A.** 69 % of control

**Q.** What about the “PEP Actively in brain (% of control)” value ([1]; 6 hr) of the same molecule?
**A.** 98 % of control

**Q.** What about the “brain prolyl endopeptidase inhibition (potency compared with SUAM-1221)” value ([1]; ex vivo, in words) of the same molecule?
**A.** more potent than SUAM-1221

**Q.** What about the “duration of action on brain prolyl endopeptidase (compared with SUAM-1221)” value ([1]; ex vivo, in words) of the same molecule?
**A.** longer duration of action

**Q.** And the IC50 (prolyl endopeptidase; porcine kidney enzyme, pH 7.8, 37° C., 20 min, read-out: IC50 (converted))?
**A.** 2.14 nM

**Q.** O=C(C1=NCCS1)[C@@H]1CCCN1C(=O)[C@@H]1CCCN1C(=O)CCCc1ccccc1 [Example 41, 2-[1-{1-(4-Phenylbutanoyl)pyrrolidin-2(S)-ylcarbonyl}pyrrolidin-2(S)-ylcarbonyl]thiazoline] was tested. Which pIC50 (prolyl endopeptidase) did it give?
**A.** 8.40

Source: patent US5547978A, “Derivatives of pyrrolidin-2-ylcarbonylheterocyclic compounds” (priority 1994, dated 1996)
